Holding throughout (assay): Post-Emergent Test I herbicidal activity
What all share (type): in vivo

Assay [1] relates to EPHHL: wild poinsettia (Euphorbia heterophylla). As to conditions: post-emergence, 336 h, read-out: Visual Growth Reduction (%)-14 Days after Application EPHHL; for pest or weed control at 70 g/ha: Table 3, 70 g ai/ha; for pest or weed control at 140 g/ha: Table 3, 140 g ai/ha. How it is done: (§1) Seeds or nutlets of the desired test plant species were planted in Sun Gro Metro-Mix® 360 planting mixture, which typically has a pH of 6.0 to 6.8 and an organic matter content of about 30 percent, in plastic pots with a surface area of 64 square centimeters. When required to ensure good germination and healthy plants, a fungicide treatment and/or other chemical or physical treatment was applied. The plants were grown for 7-21 d in a greenhouse with an approximate 15 h photoperiod which was maintained at about 23-29° C. during the day and 22-28° C. during the night. Nutrients and water were added on a regular basis and supplemental lighting was provided with overhead metal halide 1000-Watt lamps as necessary. The plants were employed for testing when they reached the first or second true leaf stage.
(§2) A weighed amount, determined by the highest rate to be tested, of each test compound was placed in a 25 mL glass vial and was dissolved in 4 mL of a 97:3 v/v mixture of acetone and DMSO to obtain concentrated stock solutions. […] The concentrated stock solutions obtained were diluted with 20 mL of an aqueous mixture containing acetone, water, isopropyl alcohol, DMSO, Atplus 411F crop oil concentrate, and Triton® X-155 surfactant in a 48.5:39:10:1.5:1.0:0.02 v/v ratio to obtain spray solutions containing the highest application rates. Additional application rates were obtained by serial dilution of 12 mL of the high rate solution into a solution containing 2 mL of 97:3 v/v mixture of acetone and DMSO and 10 mL of an aqueous mixture containing acetone, water, isopropyl alcohol, DMSO, Atplus 411F crop oil concentrate, and Triton X-155 surfactant in a 48.5:39:10:1.5:1.0:0.02 v/v ratio to obtain ½×, ¼×, ⅛× and 1/16× rates of the high rate. Compound requirements are based upon a 12 mL application volume at a rate of 187 liters per hectare (L/ha). Formulated compounds were applied to the plant material with an overhead Mandel track sprayer equipped with 8002E nozzles calibrated to deliver 187 L/ha over an application area of 0.503 square meters at a spray height of 18 inches (43 cm) above the average plant canopy height. Control plants were sprayed in the same manner with the solvent blank.
(§3) The treated plants and control plants were placed in a greenhouse as described above and watered by subirrigation to prevent wash-off of the test compounds. After 14 d, the condition of the test plants as compared with that of the untreated plants was determined visually and scored on a scale of 0 to 100 percent where 0 corresponds to no injury and 100 corresponds to complete kill.
(§4) By applying the well-accepted probit analysis as described by J. Berkson in Journal of the […], 48, 565 (1953) and by D. Finney in “Probit Analysis” Cambridge University Press (1952), the above data can be used to calculate GR20, GR50 and GR80 values, which are defined as growth reduction factors that correspond to the effective dose of herbicide required to kill or control 20 percent, 50 percent or 80 percent, respectively, of a target plant.

Assay [2] deals with ECHCG: barnyardgrass (Echinochloa crus-galli). As to conditions: post-emergence, 336 h, read-out: Visual Growth Reduction (%)-14 Days after Application ECHCG; for pest or weed control at 70 g/ha: Table 3, 70 g ai/ha; for pest or weed control at 140 g/ha: Table 3, 140 g ai/ha. How it is done:
as §1, §2, §3, §4

Assay [3] relates to CHEAL: lambsquarters (Chenopodium album). The note with it: Chenopodium album, post-emergence, 336 h, read-out: Visual Growth Reduction (%)-14 Days after Application CHEAL; for pest or weed control at 70 g/ha: Table 3, 70 g ai/ha; for pest or weed control at 140 g/ha: Table 3, 140 g ai/ha. On the procedure: as §1, §2, §3, §4
Assay [4] deals with CYPES: yellow nutsedge (Cyperus esculentus). As to conditions: post-emergence, 336 h, read-out: Visual Growth Reduction (%)-14 Days after Application CYPES; for pest or weed control at 70 g/ha: Table 3, 70 g ai/ha; for pest or weed control at 140 g/ha: Table 3, 140 g ai/ha. How it is done: as §1, §2, §3, §4
Assay [5] deals with ABUTH: velvetleaf (Abutilon theophrasti). As to conditions: Abutilon theophrasti, post-emergence, 336 h, read-out: Visual Growth Reduction (%)-14 Days after Application ABUTH; for pest or weed control at 70 g/ha: Table 3, 70 g ai/ha; for pest or weed control at 140 g/ha: Table 3, 140 g ai/ha. On the procedure: as §1, §2, §3, §4
Assay [6] concerns ORYSA: rice (Oryza sativa). As to conditions: post-emergence, 336 h, read-out: Visual Growth Reduction (%)-14 Days after Application ORYSA; for pest or weed control at 70 g/ha: Table 3, 70 g ai/ha; for pest or weed control at 140 g/ha: Table 3, 140 g ai/ha. How it is done:
as §1, §2, §3, §4

In the next assay the test system is ZEAMX: corn (Zea mays). The note with it: Zea mays, post-emergence, 336 h, read-out: Visual Growth Reduction (%)-14 Days after Application ZEAMX; for pest or weed control at 70 g/ha: Table 3, 70 g ai/ha; for pest or weed control at 140 g/ha: Table 3, 140 g ai/ha. On the procedure:
as §1, §2, §3, §4

With `COC(=O)c1nc(-c2ccc(Cl)cc2F)c(F)c(N)c1OC` [Compound 69], the pest or weed control at 70 g/ha in assay [1] was found to be 100%; in assay [2] it was 30%; in assay [3] it was 0%; in assay [4], 100%; in assay [5], 85%; in assay [6] it was 0%. In addition, in the assay on ZEAMX: corn (Zea mays), the pest or weed control at 70 g/ha came to 10%.
For `COC(=O)c1nc(-c2ccc(I)cc2F)c(F)c(N)c1OC` [Compound 26], the pest or weed control at 140 g/ha in assay [1] was 100%; in assay [2], 55%; in assay [3] it was 90%; in assay [4], 50%; in assay [5] it was 10%; in assay [6] it was 0%. In the assay with ZEAMX: corn (Zea mays), the pest or weed control at 140 g/ha came to 75%.
As for `COC(=O)c1nc(C(F)F)cc(N)c1OC` [Compound 92], the pest or weed control at 140 g/ha stood at 70% in assay [1]; 0% in assay [2]; 95% in assay [3]; 0% in assay [4]; 40% in assay [5]; 0% in assay [6]. Moreover, in the assay on ZEAMX: corn (Zea mays), the pest or weed control at 140 g/ha was 0%.
With `COC(=O)c1nc(-c2ccc(Br)c(F)c2)c(F)c(N)c1OC` [Compound 21], the pest or weed control at 70 g/ha in assay [1] worked out at 100%; in assay [2] it was 50%; in assay [3], 100%; in assay [4], 70%; in assay [5], 85%; in assay [6], 0%. In addition, the pest or weed control at 70 g/ha in the assay with ZEAMX: corn (Zea mays) was 50%.
With `COc1ccc(-c2nc(C(=O)O)c(OC)c(N)c2F)cn1` [Compound 78, 4-amino-3-fluoro-5,6′-dimethoxy-[2,3′-bipyridine]-6-carboxylic acid], the pest or weed control at 70 g/ha stood at 80% in assay [1]; 85% in assay [2]; 97% in assay [3]; 80% in assay [4]; 80% in assay [5]; 50% in assay [6]. The pest or weed control at 70 g/ha in the assay with ZEAMX: corn (Zea mays) amounted to 80%.
In the case of `COc1c(C(=O)O)nc(-c2ccc(C3CC3)nc2)c(F)c1N` [Compound 77, 4-amino-6′-cyclopropyl-3-fluoro-5-methoxy-[2,3′-bipyridine]-6-carboxylic acid], the pest or weed control at 140 g/ha is 95% in assay [1]; 85% in assay [2]; 75% in assay [3]; 90% in assay [4]; 80% in assay [5]; 65% in assay [6]. In addition, in the assay with ZEAMX: corn (Zea mays), the pest or weed control at 140 g/ha amounted to 95%.
Take `COc1c(C(=O)O)nc(-c2ccc(Cl)cc2F)c(F)c1N` [Compound 71]: the pest or weed control at 70 g/ha in assay [1] was 100%; in assay [2], 85%; in assay [3] it was 90%; in assay [4], 100%; in assay [5], 80%; in assay [6], 0%. In the assay on ZEAMX: corn (Zea mays), the pest or weed control at 70 g/ha amounted to 70%.
As to `COC(=O)c1nc(-c2ccc(I)c(F)c2F)c(F)c(N)c1OC` [Compound 24], the pest or weed control at 140 g/ha is 100% in assay [1]; 50% in assay [2]; 65% in assay [3]; 100% in assay [4]; 60% in assay [5]; 0% in assay [6]. The pest or weed control at 140 g/ha with ZEAMX: corn (Zea mays) stood at 75%.
Take `COc1c(C(=O)O)nc(-c2ccc(Br)c(F)c2F)c(F)c1N` [Compound 54]: the pest or weed control at 70 g/ha was 100% in assay [1]; 90% in assay [2]; 90% in assay [3]; 100% in assay [4]; 90% in assay [5]; 5% in assay [6]. Also, the pest or weed control at 70 g/ha in the assay on ZEAMX: corn (Zea mays) amounted to 85%.
Turning to `CCOC(=O)c1nc(-c2ccc(Cl)cc2F)cc(N)c1OCC(F)F` [Compound 68], the pest or weed control at 180 g/ha in assay [1] (Table 3, 180 g ai/ha) came out at 100%; in assay [2] (Table 3, 180 g ai/ha), 0%; in assay [3] (Table 3, 180 g ai/ha), 90%; in assay [4] (Table 3, 180 g ai/ha), 90%; in assay [5] (Table 3, 180 g ai/ha), 100%; in assay [6] (Table 3, 180 g ai/ha), 0%. Moreover, the pest or weed control at 180 g/ha with ZEAMX: corn (Zea mays) (Table 3, 180 g ai/ha) worked out at 10%.
On to `COC(=O)c1nc(Cl)c(F)c(N)c1OC` [Compound 10, methyl 4-amino-6-chloro-5-fluoro-3-methoxypicolinate], for which the pest or weed control at 280 g/ha came out at 100% in assay [1] (Table 3, 280 g ai/ha); 0% in assay [2] (Table 3, 280 g ai/ha); 100% in assay [3] (Table 3, 280 g ai/ha); 0% in assay [4] (Table 3, 280 g ai/ha); 100% in assay [5] (Table 3, 280 g ai/ha); 0% in assay [6] (Table 3, 280 g ai/ha). In addition, the pest or weed control at 280 g/ha with ZEAMX: corn (Zea mays) (Table 3, 280 g ai/ha) is 25%.

(Values after patent publication US9518018B2, “3-alkoxy, thioalkyl and amino-4-amino-6-(substituted)picolinates and their use as herbicides” (Dow AgroSciences LLC, priority 2011, dated 2016).)
